Experimental data reported in patent US20250320194A1, “PHARMACEUTICALLY ACCEPTABLE SALT AND CRYSTAL FORM OF FUSED PYRIDINE RING DERIVATIVE AND PREPARATION METHOD THEREFOR” (Jiangsu Hengrui Pharmaceuticals Co., Ltd., priority 2021, published 2025).

Columns and labels:
[1] = Hygroscopicity of salt crystal forms (DVS, 25° C.); type: physicochemical; settings: for Hygroscopicity 0.0% RH-95.0% RH / Hygroscopicity 20.0% RH-80.0% RH: DVS, 25° C.; for Crystal form: after DVS
Method: The test adopts SMS DVS Advantage, at 25° C., with a humidity range of 0 to 95% and a step of 10%. The judgment standard is that the dM/dT of each gradient mass change is less than 0.002%, TMAX is 360 minutes, and the cycle is two times. • 5. Cation chromatography • Instrument model: DIONEX AQUION ion chromatograph, USA • Detection method: conductivity; separation column: IonPac CS16-CG16 • Eluent: MSA 20Mm • Flow rate: 1.0 ml/min • 6. Anion chromatography • Instrument model: DIONEX INTEGRION HPIC ion chromatograph, USA • Detection method: conductivity; separation column: DionexIonPac™-AS11-HC • Eluent: EGC-500-KOH • Flow rate: 1.5 ml/min
Using Surface Measurement Systems advantage, at 25° C., the humidity starts from 50%, the humidity range is 0% to 95%, the step is 10%. The judgment standard was that the dM/dT of each gradient mass change is less than 0.002%, TMAX360 min, and the cycle was two times. The hygroscopicity of different salt crystal forms of the compound of formula I was investigated respectively.

[2] = Long-term/accelerated stability
[3] = Stability under influencing factors (high temperature, high humidity, open, 30 days)

Compound: CC(C)(C#Cc1nc(C(Cc2cc(F)cc(F)c2)NC(=O)Cn2nc(C(F)(F)F)c3c2C(F)(F)C2CC32)c(-c2ccc(Cl)c3c(NS(C)(=O)=O)nn(CC(F)(F)F)c23)c2c1CCC2)S(C)(=O)=O.O=S(=O)(O)O (stereo not shown) [Crystal form A of hydrosulfate]
- Hygroscopicity 0.0% RH-95.0% RH [1]: 4.55%
- Hygroscopicity 20.0% RH-80.0% RH [1]: 1.59%
- Crystal form [1]: Unchanged
- Purity % ([2]; 4° C., 1 month): 99.09%
- Purity % ([2]; 4° C., 2 months): 99.08%
- Purity % ([2]; 4° C., 3 months): 99.08%
- Purity % ([2]; 4° C., 6 months): 99.09%
- Purity % ([2]; 4° C., Start): 99.09%
- Purity % ([2]; 25° C., 60% RH, 1 month): 99.01%
- Purity % ([2]; 25° C., 60% RH, 2 months): 98.99%
- Purity % ([2]; 25° C., 60% RH, 3 months): 99.03%
- Purity % ([2]; 25° C., 60% RH, 6 months): 98.91%
- Purity % ([2]; 25° C., 60% RH, Start): 99.09%
- Purity % ([2]; 40° C., 75% RH, 1 month): 98.83%
- Purity % ([2]; 40° C., 75% RH, 2 months): 98.99%
- Purity % ([2]; 40° C., 75% RH, 3 months): 98.98%
- Purity % ([2]; 40° C., 75% RH, 6 months): 98.76%
- Purity % ([2]; 40° C., 75% RH, Start): 99.09%
- physical and chemical stability (conclusion) ([2]; long-term accelerated stability conditions for 6 months): good physical and chemical stability
- physical stability (conclusion) ([3]; 40° C., 60° C., 7500 RH and 92.5% RH, crystal form not transformed): good physical stability
- chemical stability (conclusion) ([3]; 40° C., 7500 RH and 92.5%0 RH, not at high temperature (60° C.)): good chemical stability
- Color, properties ([3]; 40° C., 5 days): White solid
- Crystal form ([3]; 40° C., 5 days): Unchanged
- Purity % ([3]; 40° C., 5 days): 99.06%
- Color, properties ([3]; 40° C., 10 days): White solid
- Crystal form ([3]; 40° C., 10 days): Unchanged
- Purity % ([3]; 40° C., 10 days): 99.01%
- Color, properties ([3]; 40° C., 30 days): White solid
- Crystal form ([3]; 40° C., 30 days): Unchanged
- Purity % ([3]; 40° C., 30 days): 99.03%
- Color, properties ([3]; 60° C., 5 days): White solid
- Crystal form ([3]; 60° C., 5 days): Unchanged
- Purity % ([3]; 60° C., 5 days): 96.46%
- Color, properties ([3]; 60° C., 10 days): White solid
- Crystal form ([3]; 60° C., 10 days): Unchanged
- Purity % ([3]; 60° C., 10 days): 96.22%
- Color, properties ([3]; 60° C., 30 days): White solid
- Crystal form ([3]; 60° C., 30 days): Unchanged
- Purity % ([3]; 60° C., 30 days): 95.17%
- Color, properties ([3]; 75% RH, 5 days): White solid
- Crystal form ([3]; 75% RH, 5 days): Unchanged
- Purity % ([3]; 75% RH, 5 days): 99.11%
- Color, properties ([3]; 75% RH, 10 days): White solid
- Crystal form ([3]; 75% RH, 10 days): Unchanged
- Purity % ([3]; 75% RH, 10 days): 99.11%
- Color, properties ([3]; 75% RH, 30 days): White solid
- Crystal form ([3]; 75% RH, 30 days): Unchanged
- Purity % ([3]; 75% RH, 30 days): 99.05%
- Color, properties ([3]; 92.5% RH, 5 days): White solid
- Crystal form ([3]; 92.5% RH, 5 days): Unchanged
- Purity % ([3]; 92.5% RH, 5 days): 99.18%
- Color, properties ([3]; 92.5% RH, 10 days): White solid
- Crystal form ([3]; 92.5% RH, 10 days): Unchanged
- Purity % ([3]; 92.5% RH, 10 days): 99.02%
- Color, properties ([3]; 92.5% RH, 30 days): White solid
- Crystal form ([3]; 92.5% RH, 30 days): Unchanged
- Purity % ([3]; 92.5% RH, 30 days): 99.07%
- Color, properties ([3]; Start, 0 days): White solid
- Purity % ([3]; Start, 0 days): 99.09%

Compound: CC(C)(C#Cc1nc(C(Cc2cc(F)cc(F)c2)NC(=O)Cn2nc(C(F)(F)F)c3c2C(F)(F)C2CC32)c(-c2ccc(Cl)c3c([N-]S(C)(=O)=O)nn(CC(F)(F)F)c23)c2c1CCC2)S(C)(=O)=O.C[N+](C)(C)CCO (stereo not shown) [Crystal form B of the choline salt]
- Hygroscopicity 0.0% RH-95.0% RH [1]: 9.92%
- Hygroscopicity 20.0% RH-80.0% RH [1]: 5.96%
- Crystal form [1]: Unchanged
- Color, properties ([3]; 40° C., 5 days): White solid
- Crystal form ([3]; 40° C., 5 days): Unchanged
- Purity % ([3]; 40° C., 5 days): 98.34%
- Color, properties ([3]; 40° C., 10 days): White solid
- Crystal form ([3]; 40° C., 10 days): Unchanged
- Purity % ([3]; 40° C., 10 days): 98.33%
- Color, properties ([3]; 40° C., 30 days): White solid
- Crystal form ([3]; 40° C., 30 days): Unchanged
- Purity % ([3]; 40° C., 30 days): 98.35%
- Color, properties ([3]; 60° C., 5 days): White solid
- Crystal form ([3]; 60° C., 5 days): Unchanged
- Purity % ([3]; 60° C., 5 days): 98.39%
- Color, properties ([3]; 60° C., 10 days): White solid
- Crystal form ([3]; 60° C., 10 days): Unchanged
- Purity % ([3]; 60° C., 10 days): 98.36%
- Color, properties ([3]; 60° C., 30 days): White solid
- Crystal form ([3]; 60° C., 30 days): Unchanged
- Purity % ([3]; 60° C., 30 days): 98.36%
- Color, properties ([3]; 75% RH, 5 days): White solid
- Crystal form ([3]; 75% RH, 5 days): Unchanged
- Purity % ([3]; 75% RH, 5 days): 98.35%
- Color, properties ([3]; 75% RH, 10 days): White solid
- Crystal form ([3]; 75% RH, 10 days): Unchanged
- Purity % ([3]; 75% RH, 10 days): 98.35%
- Color, properties ([3]; 75% RH, 30 days): White solid
- Crystal form ([3]; 75% RH, 30 days): Unchanged
- Purity % ([3]; 75% RH, 30 days): 98.36%
- Color, properties ([3]; 92.5% RH, 5 days): White solid
- Crystal form ([3]; 92.5% RH, 5 days): Unchanged
- Purity % ([3]; 92.5% RH, 5 days): 98.45%
- Color, properties ([3]; 92.5% RH, 10 days): White solid
- Crystal form ([3]; 92.5% RH, 10 days): Unchanged
- Purity % ([3]; 92.5% RH, 10 days): 98.34%
- Color, properties ([3]; 92.5% RH, 30 days): White solid
- Crystal form ([3]; 92.5% RH, 30 days): Unchanged
- Purity % ([3]; 92.5% RH, 30 days): 98.35%
- Color, properties ([3]; Start, 0 days): White solid
- Purity % ([3]; Start, 0 days): 98.34%
